Laboratory results reported in the supplement of paper PMC11414989.

Assays:
Conditions in all cases: exposure window: 6 hpf to 120 hpf, static, assay age: 120 hpf (5 dpf)
[1] = tested on: Danio rerio larvae (Tropical 5D); assay: mean distance moved of exposed larvae, light phase (µm per frame (1/25 s)); higher = more movement
Description: (§1)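 Larval photomotor response in Tropical 5D wild-type zebrafish. Larvae were statically exposed to each chemical from 6 hpf to 5 dpf in 96-well plates; morphologically abnormal larvae were excluded. At 120 hpf, larvae were tracked with Ethovision XT (25 frames/s) over the 2nd cycle of 3 min light and 3 min dark. Values are the mean movement metric of exposed larvae per phase; same-plate control means (plate-dependent baseline) are given as conditions.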

[2] = tested on: Danio rerio larvae (Tropical 5D); assay: mean angular velocity of exposed larvae, light phase (angular velocity (unit not stated)); higher = more movement
Description: as §1

[3] = tested on: Danio rerio larvae (Tropical 5D); assay: mean angular velocity of exposed larvae, dark phase (angular velocity (unit not stated)); higher = more movement
Description: as §1

[4] = tested on: Danio rerio larvae (Tropical 5D); assay: mean distance moved of exposed larvae, dark phase (µm per frame (1/25 s)); higher = more movement
Description: as §1

## CN(CC(=O)O)S(=O)(=O)C(F)(F)C(F)(F)C(F)(F)C(F)(F)C(F)(F)C(F)(F)C(F)(F)C(F)(F)F [N-methylperfluoro-1-octanesulfonamidoacetic acid]
[1]; 0.25 µM
  mean distance moved of exposed larvae: 1.43
[2]; 0.25 µM
  mean angular velocity of exposed larvae: 0.0567
[3]; 0.25 µM
  mean angular velocity of exposed larvae: 0.256
[4]; 0.25 µM
  mean distance moved of exposed larvae: 6.38

## NC(=O)C(F)(F)C(F)(F)C(F)(F)C(F)(F)F [Nonafluoropentanamide]
[1]; 0.015 µM
  mean distance moved of exposed larvae: 2.24
[1]; 0.046 µM
  mean distance moved of exposed larvae: 4.1
[1]; 0.14 µM
  mean distance moved of exposed larvae: 3.32
[1]; 0.41 µM
  mean distance moved of exposed larvae: 2.83
[1]; 1.23 µM
  mean distance moved of exposed larvae: 1.91
[1]; 3.7 µM
  mean distance moved of exposed larvae: 2.44
[1]; 11.1 µM
  mean distance moved of exposed larvae: 3.86
[1]; 33.3 µM
  mean distance moved of exposed larvae: 2.5
[1]; 66.5 µM
  mean distance moved of exposed larvae: 2.36
[1]; 100 µM
  mean distance moved of exposed larvae: 2.76
[2]; 0.015 µM
  mean angular velocity of exposed larvae: 0.107
[2]; 0.046 µM
  mean angular velocity of exposed larvae: 0.153
[2]; 0.14 µM
  mean angular velocity of exposed larvae: 0.163
[2]; 0.41 µM
  mean angular velocity of exposed larvae: 0.0614
[2]; 1.23 µM
  mean angular velocity of exposed larvae: 0.124
[2]; 3.7 µM
  mean angular velocity of exposed larvae: 0.0715
[2]; 11.1 µM
  mean angular velocity of exposed larvae: 0.078
[2]; 33.3 µM
  mean angular velocity of exposed larvae: 0.103
[2]; 66.5 µM
  mean angular velocity of exposed larvae: 0.0723
[2]; 100 µM
  mean angular velocity of exposed larvae: 0.107
[3]; 0.015 µM
  mean angular velocity of exposed larvae: 0.911
[3]; 0.046 µM
  mean angular velocity of exposed larvae: 1.03
[3]; 0.14 µM
  mean angular velocity of exposed larvae: 0.788
[3]; 0.41 µM
  mean angular velocity of exposed larvae: 0.731
[3]; 1.23 µM
  mean angular velocity of exposed larvae: 0.649
[3]; 3.7 µM
  mean angular velocity of exposed larvae: 0.476
[3]; 11.1 µM
  mean angular velocity of exposed larvae: 0.903
[3]; 33.3 µM
  mean angular velocity of exposed larvae: 0.989
[3]; 66.5 µM
  mean angular velocity of exposed larvae: 0.804
[3]; 100 µM
  mean angular velocity of exposed larvae: 0.714
[4]; 0.015 µM
  mean distance moved of exposed larvae: 25.4
[4]; 0.046 µM
  mean distance moved of exposed larvae: 26.1
[4]; 0.14 µM
  mean distance moved of exposed larvae: 19.4
[4]; 0.41 µM
  mean distance moved of exposed larvae: 25.8
[4]; 1.23 µM
  mean distance moved of exposed larvae: 17.3
[4]; 3.7 µM
  mean distance moved of exposed larvae: 12.1
[4]; 11.1 µM
  mean distance moved of exposed larvae: 23.9
[4]; 33.3 µM
  mean distance moved of exposed larvae: 26.5
[4]; 66.5 µM
  mean distance moved of exposed larvae: 18.1
[4]; 100 µM
  mean distance moved of exposed larvae: 19.5

## O=C(O)C(F)(F)C(F)(F)C(F)(F)C(F)(F)C(F)(F)C(F)(F)C(F)(F)C(F)(F)C(F)(F)C(F)(F)C(F)(F)C(F)(F)C(F)(F)C(F)(F)C(F)(F)F [Perfluoro-n-hexadecanoic acid]
[1]; 0.25 µM
  mean distance moved of exposed larvae: 6.65
[2]; 0.25 µM
  mean angular velocity of exposed larvae: 0.178
[3]; 0.25 µM
  mean angular velocity of exposed larvae: 0.833
[4]; 0.25 µM
  mean distance moved of exposed larvae: 27.2

## O=C(O)C(F)(F)C(F)(F)C(F)(F)C(F)(F)C(F)(F)C(F)(F)C(F)(F)C(F)(F)C(F)(F)C(F)(F)C(F)(F)C(F)(F)C(F)(F)C(F)(F)C(F)(F)C(F)(F)C(F)(F)F [Perfluoro-n-octadecanoic acid]
[1]; 0.25 µM
  mean distance moved of exposed larvae: 3.51
[2]; 0.25 µM
  mean angular velocity of exposed larvae: 0.146
[3]; 0.25 µM
  mean angular velocity of exposed larvae: 0.571
[4]; 0.25 µM
  mean distance moved of exposed larvae: 10.3

## O=P(O)(O)C(F)(F)C(F)(F)C(F)(F)C(F)(F)C(F)(F)C(F)(F)C(F)(F)C(F)(F)C(F)(F)C(F)(F)F [Perfluorodecylphosphonic acid]
[1]; 0.25 µM
  mean distance moved of exposed larvae: 1.45
[2]; 0.25 µM
  mean angular velocity of exposed larvae: 0.0471
[3]; 0.25 µM
  mean angular velocity of exposed larvae: 0.34
[4]; 0.25 µM
  mean distance moved of exposed larvae: 9.21
